Test results from patent publication US20130157973A1, “PHARMACEUTICAL COMPOSITIONS AND METHODS FOR TREATING GASTROINTESTINAL INFECTIONS AND DISORDERS” (priority 2011, published 2013).
Where two headings read alike, the source gives them in different places.

What was measured:
serum HCV RNA = assay: Phase IIa studies: serum HCV RNA by quantitative polymerase chain reaction; assay type: in vivo, hepatitis C virus
Experimental: Two randomized, double-blind phase IIa studies of Compound B administered two times per week for 4 weeks. Multicenter study (U.S.): 12 subjects received Compound B 0.01 mg/kg and 4 received placebo. Single center study (France): 6 subjects received 0.01 mg/kg, 11 received 0.02 mg/kg and 6 received placebo.
Serum HCV RNA was measured by quantitative polymerase chain reaction (NGI). Subjects were categorized as responders (reduction from baseline of ˜2 logs) or non-responders at the end-of-treatment visit (day 29), and at the last follow-up visit (day 113 U.S. study, and day 57 French study).

[1] = Phase IIa studies in chronic HCV subjects: safety, neutrophil and lymphocyte counts, liver enzymes; assay type: in vivo, human; details: for proportion of subjects with AST elevations / proportion of subjects with ALT elevations: French study, 0.02 mg/kg group
Experimental: Single center study (France): 6 subjects received 0.01 mg/kg, 11 received 0.02 mg/kg and 6 received placebo.
Exclusion criteria included clinically meaningful cirrhosis on prior liver biopsy (U.S. study), positive serology for possible autoimmune hepatitis (ANA˜1:640, ASMA>1:320, ALKM antibody>1:320), hepatocellular neoplasia, anemia (<12 g/dL for men, <11 for women), thrombocytopenia (<90,000/μL), leukopenia (<2500 cells/μL), neutropenia (<1500 cells/μL, U.S. study), ALT>1000 U/L (French study) or aspartate aminotransferase (AST) or ALT>500 U/L (U.S. study), bilirubin>1 mg/dL, decompensated liver disease, other liver diseases, positive serology for HIV, positive HBsAg, prior organ transplantation, significant psychiatric disease, alcohol or drug abuse within 12 months, systemic immunomodulatory or investigational therapy within 3 months, and significant cardiac, pulmonary, systemic inflammatory or thyroid disease.
In the U.S. study, subjects were assigned centrally across centers. Active to placebo assignment was 3:1 for each cohort. Sample sizes were not prospectively powered.
All subjects were to receive study drug two times per week for 4 weeks. Subjects self-administered study drug at home except on study visits with pharmacokinetic and pharmacodynamic sampling where it was administered in the clinic. […] In the U.S. study, subjects received 0.01 mg/kg of resiquimod.
(§1) Serum IL-6, IL-1RA, TNF-α and IFN-γ were measured by enzyme-linked immunosorbent assay (Immunotech, Cedex, France) and neopterin by immunoenzymatic assay (Immunotech, Cedex, France). Serum type I IFN levels were determined by bioassay. Serum 2′,5′ oligoadenylate synthetase (2′5′ AS) was measured by radioimmunoassay (Eiken Chemical Co. Ltd., Tokyo, Japan). Serum IL-12 p40 was measured by enzyme-linked immunosorbent assay (R&D Systems, Minneapolis, Minn.) Immunophenotyping of T lymphocytes in the U.S. study was performed at NGI.

[2] = Single-dose pharmacokinetics of Compound B, fasted and fed cohorts; assay type: in vivo, human; details: for Cmax / AUC(0-inf) / half-life / Tmax: human, plasma, oral; for Cmax: read-out: Cmax Mean (% CV); for AUC(0-inf): read-out: AUCinf Mean (% CV); for Tmax: read-out: Tmax Median (Q1, Q3)
Experimental: Table 1 and Table 2 present the PK parameters of Compound B following the administration of a single dose of Compound B in the fasted cohorts and fed cohorts, respectively. Mean maximal plasma concentration values (Cmax) were higher with increasing dose in the fasted treatment groups. Mean maximal plasma concentration values were lower when Compound B (8 mg) was administered with moderate- or high-fat meal or following a high fat-meal than when Compound B was administered under fasting conditions.

IFN-α = assay: Phase IIa studies: serum type I IFN levels by bioassay; assay type: in vivo, human
Experimental: as §1, with “Samples for cytokines were obtained at 0, 2, 4, 6, 8, 12 and 24 h after the first dose, prior to dosing at days 8, 15, 22 or 25 (see above regarding pharmacokinetics) and day 29. Serum IL-6,” for “Serum IL-6,”

[3] = Placebo-controlled single and multiple administration tolerability studies in healthy adults; assay type: in vivo; details: single administration study in 48 healthy adults, up to 0.05 mg/kg
[4] = of the 11 subjects with at least a 1-log reduction at any time
[5] = 0.3 mg, single dose 0.3 mg, Cohort 1, fasted
[6] = 1 mg, single dose 1 mg, Cohort 2, fasted
[7] = 2 mg, single dose 2 mg, Cohort 3, fasted
[8] = 4 mg, single dose 4 mg, Cohort 4, fasted
[9] = 6 mg, single dose 6 mg, Cohort 5, fasted
[10] = 8 mg, single dose 8 mg post high-fat meal (4 hours), Cohort 9
[11] = 8 mg, single dose 8 mg with a high-fat meal, IFE Cohort
[12] = 8 mg, single dose 8 mg with a moderate-fat meal, Cohort 8
[13] = 8 mg, single dose 8 mg, Cohort 6, fasted
[14] = 12 mg, single dose 12 mg, Cohort 7, fasted

In the case of `CCCCOc1nc(N)c2c(n1)N(Cc1cccc(CN3CCCC3)c1)CC(=O)N2` [Compound B, 4-amino-2-butoxy-8-(3-(pyrrolidin-1-ylmethyl)benzyl)-7,8-dihydropteridin-6(5H)-one], the “subjects with at least a 1-log reduction in HCV levels at any time during the study” value (serum HCV RNA; 0.01 mg/kg group) was “five”, the “subjects with at least a 1-log reduction in HCV levels at any time during the study” value (serum HCV RNA; 0.02 mg/kg group) was “six” and the “subjects with maximal reduction in viral levels of at least 1-log” value (serum HCV RNA; 0.02 mg/kg group) was “Two”. The “subjects with maximal reduction in viral levels of at least 2-logs” value (serum HCV RNA; 0.02 mg/kg group) was “three”, the “subjects with maximal reduction in viral levels of at least 3-logs” value (serum HCV RNA; 0.02 mg/kg group) was “one” and the “responders per protocol (2 log reduction) at end-of-treatment visit” value (serum HCV RNA; 0.02 mg/kg, day 29, not sustained on follow-up) was “one”. For the same compound, the “subjects whose HCV Rmax occurred at day 29 or after” value (serum HCV RNA; [4]) was 5 subjects, the “subjects whose HCV Rmax occurred within 48 h after dose 1” value (serum HCV RNA; [4]) was 6 subjects and the “effect on viral levels” value (serum HCV RNA; oral 0.02 mg/kg) was “transiently reduced viral levels”. The “serum HCV RNA levels after the first dose” value (serum HCV RNA; peaking at about 24 h, trending toward baseline by 48 h) was “dose-dependent decrease”, the “proportion of subjects with AST elevations” value ([1]; day 1 (6/11)) was 55% and the “proportion of subjects with ALT elevations” value ([1]; day 1 (9/11)) was 82%. The “proportion of subjects with AST elevations” value ([1]; day 29 (1/9)) was 11%, the “proportion of subjects with ALT elevations” value ([1]; day 29 (5/9)) was 56% and the “ALT and AST levels” value ([1]; U.S. study, 0.01 mg/kg) was “Neither ALT nor AST levels appeared to be affected”. For the same compound, the “changes in physical examinations” value ([1]; both studies) was “no clinically meaningful changes”, the “Clinically relevant changes in CD4+ lymphocyte counts or CD4+/CD8+ lymphocyte ratios” value ([1]; human, in vivo) was “not observed” and the adverse effects ([1]; oral 0.02 mg/kg) was “adverse effects similar to interferon-alpha”. The “Mean maximal plasma concentration fed vs fasting” value ([2]; 8 mg with moderate- or high-fat meal or following a high-fat meal, vs fasting conditions) was “lower”, the Cmax [2, 5] was 0.184 ng/mL and the AUC(0-inf) ([2]; 0.3 mg, single dose 0.3 mg, Cohort 1, fasted, limited terminal phase data, interpret with caution) was 2.97 ng·h/mL. It also gave a half-life ([2]; 0.3 mg, single dose 0.3 mg, Cohort 1, fasted, plasma measured only to 24 hours, interpret with caution, read-out: T½ Median (Q1, Q3) (converted)) of 10.4 h, a Tmax [2, 5] of 3 h and a Cmax [2, 6] of 0.44 ng/mL. For the same compound, the AUC(0-inf) [2, 6] was 9.23 ng·h/mL, the Tmax [2, 6] was 3 h and the half-life ([2]; 1 mg, single dose 1 mg, Cohort 2, fasted, read-out: T½ Median (Q1, Q3) (converted)) was 26.9 h. The Cmax [2, 7] was 0.633 ng/mL, the AUC(0-inf) [2, 7] was 11.3 ng·h/mL and the Tmax [2, 7] was 6 h. For the same compound, the half-life ([2]; 2 mg, single dose 2 mg, Cohort 3, fasted, read-out: T½ Median (Q1, Q3) (converted)) was 24.3 h, the Cmax [2, 8] was 2.93 ng/mL and the AUC(0-inf) [2, 8] was 57.2 ng·h/mL. For the same compound, the Tmax [2, 8] was 4 h, the half-life ([2]; 4 mg, single dose 4 mg, Cohort 4, fasted, read-out: T½ Median (Q1, Q3) (converted)) was 17.2 h and the Cmax [2, 9] was 7.26 ng/mL. It also gave an AUC(0-inf) [2, 9] of 76.9 ng·h/mL, a Tmax [2, 9] of 2.5 h and a half-life ([2]; 6 mg, single dose 6 mg, Cohort 5, fasted, read-out: T½ Median (Q1, Q3) (converted)) of 14.7 h. For the same compound, the AUC(0-inf) [2, 10] was 79.5 ng·h/mL, the Cmax [2, 10] was 4.53 ng/mL and the Tmax [2, 10] was 5 h. It also gave a half-life ([2]; 8 mg, single dose 8 mg post high-fat meal (4 hours), Cohort 9, read-out: T½ Median (Q1, Q3) (converted)) of 20.5 h, an AUC(0-inf) [2, 11] of 71.4 ng·h/mL and a Cmax [2, 11] of 5.24 ng/mL. It also gave a Tmax [2, 11] of 3 h, a half-life ([2]; 8 mg, single dose 8 mg with a high-fat meal, IFE Cohort, read-out: T½ Median (Q1, Q3) (converted)) of 23.6 h and an AUC(0-inf) [2, 12] of 51.1 ng·h/mL. The Cmax [2, 12] was 2.04 ng/mL, the Tmax [2, 12] was 2 h and the half-life ([2]; 8 mg, single dose 8 mg with a moderate-fat meal, Cohort 8, read-out: T½ Median (Q1, Q3) (converted)) was 21.6 h. The Cmax [2, 13] was 8.34 ng/mL, the AUC(0-inf) [2, 13] was 109 ng·h/mL and the Tmax [2, 13] was 2.51 h. It also gave a half-life ([2]; 8 mg, single dose 8 mg, Cohort 6, fasted, read-out: T½ Median (Q1, Q3) (converted)) of 19.5 h, a Cmax [2, 14] of 12 ng/mL and an AUC(0-inf) [2, 14] of 140 ng·h/mL. It also gave a Tmax [2, 14] of 1.51 h, a half-life ([2]; 12 mg, single dose 12 mg, Cohort 7, fasted, read-out: T½ Median (Q1, Q3) (converted)) of 16.3 h and a half-life ([2]; all groups except the 0.3-mg group, read-out: Median terminal half-life values across groups) of 14.7 to 26.9 h. The “IFN-α Rmax post-dose 1 of individual subject” value (IFN-α; 0.02 mg/kg subject who discontinued treatment for severe grade flu-like symptoms) was 3946 IU/mL, the “IFN-α Rmax post-dose 1 of individual subject” value (IFN-α; 0.02 mg/kg subject who discontinued treatment for severe grade lymphopenia) was 15,557 IU/mL and the “maximum tolerated oral dose” value [3] was 0.03 mg/kg.
